Patent US9616064B2, “Rho kinase inhibitors and methods of use” (H. LEE MOFFITT CANCER CENTER AND RESEARCH INSTITUTE, INC., priority 2011, dated 2017)

Biological target: ROCK1 (Homo sapiens (Human), UniProt Q13464)
Assay: Z-lyte FRET assay to measure kinase inhibition, ROCK1
Type: biochemical
Conditions: for inhibition at 50 µM: read-out: ROCK1 % inhibition @ 50 μM, 50 μM compound; for IC50: read-out: ROCK1 IC50; for inhibition at 100 µM: read-out: ROCK1 % inhibition @ 100 μM, 100 μM compound

ROCK1, sequence (Q13464 whole entry): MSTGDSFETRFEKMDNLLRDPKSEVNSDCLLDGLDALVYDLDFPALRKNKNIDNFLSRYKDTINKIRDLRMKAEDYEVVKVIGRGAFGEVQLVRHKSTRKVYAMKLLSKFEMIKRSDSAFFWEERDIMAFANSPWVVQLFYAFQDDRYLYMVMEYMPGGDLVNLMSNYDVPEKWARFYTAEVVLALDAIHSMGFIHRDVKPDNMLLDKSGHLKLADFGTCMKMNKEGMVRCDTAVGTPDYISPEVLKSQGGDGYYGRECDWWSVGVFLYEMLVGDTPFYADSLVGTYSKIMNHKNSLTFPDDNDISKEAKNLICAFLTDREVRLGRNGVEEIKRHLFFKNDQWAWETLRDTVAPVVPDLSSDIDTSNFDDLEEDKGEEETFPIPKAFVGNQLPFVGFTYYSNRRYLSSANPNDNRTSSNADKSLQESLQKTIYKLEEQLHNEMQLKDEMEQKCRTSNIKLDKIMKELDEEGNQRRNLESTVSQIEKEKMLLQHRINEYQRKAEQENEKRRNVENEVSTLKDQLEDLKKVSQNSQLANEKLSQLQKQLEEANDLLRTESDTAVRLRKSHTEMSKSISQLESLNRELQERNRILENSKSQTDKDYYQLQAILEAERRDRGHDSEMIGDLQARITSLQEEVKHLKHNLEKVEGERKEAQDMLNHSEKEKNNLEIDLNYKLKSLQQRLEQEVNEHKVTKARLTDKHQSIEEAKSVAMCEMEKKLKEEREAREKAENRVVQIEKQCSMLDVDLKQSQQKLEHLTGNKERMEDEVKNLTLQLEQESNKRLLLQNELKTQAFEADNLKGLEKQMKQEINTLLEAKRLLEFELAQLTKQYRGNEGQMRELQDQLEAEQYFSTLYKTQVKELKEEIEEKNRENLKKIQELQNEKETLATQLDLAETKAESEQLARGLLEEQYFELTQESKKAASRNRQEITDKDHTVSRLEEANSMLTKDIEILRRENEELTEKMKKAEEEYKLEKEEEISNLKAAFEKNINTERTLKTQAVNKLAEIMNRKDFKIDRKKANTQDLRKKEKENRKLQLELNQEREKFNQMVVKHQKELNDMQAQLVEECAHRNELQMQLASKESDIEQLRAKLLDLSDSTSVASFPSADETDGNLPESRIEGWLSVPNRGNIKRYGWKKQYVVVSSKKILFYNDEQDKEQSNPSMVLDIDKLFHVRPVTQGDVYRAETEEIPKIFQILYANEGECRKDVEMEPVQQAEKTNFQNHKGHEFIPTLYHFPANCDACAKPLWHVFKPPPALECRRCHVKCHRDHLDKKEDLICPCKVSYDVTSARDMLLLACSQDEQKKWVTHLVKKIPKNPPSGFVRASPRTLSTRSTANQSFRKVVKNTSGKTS

Nc1nccc(Nc2ccc(S(=O)(=O)Nc3ccnn3-c3ccccc3)cc2)n1 gave an inhibition at 50 µM of 1.8 ± 0.8%.
In the case of Nc1nccc(Nc2ccc(S(=O)(=O)Nc3nccs3)cc2)n1, the inhibition at 50 µM is reported as 21 ± 10%.
With Nc1nccc(Nc2ccc(S(=O)(=O)Nc3ccccn3)cc2)n1 the inhibition at 50 µM was 2.8 ± 2.3%.
Nc1nccc(Nc2ccc(S(=O)(=O)N3CCN(c4cccc(C(F)(F)F)c4)CC3)cc2)n1 showed an inhibition at 50 µM of -0.3 ± 0.7%.
For CC(=O)NS(=O)(=O)c1ccc(Nc2ccnc(N)n2)cc1, the inhibition at 50 µM was 9 ± 1.5%.
With Nc1nccc(Nc2ccc(S(=O)(=O)NC(=O)c3ccccc3)cc2)n1 the inhibition at 50 µM was 2.1 ± 1.9%.
In the case of Nc1nccc(Nc2ccc(S(=O)(=O)NCc3ccccc3)cc2)n1, the inhibition at 50 µM is reported as 30 ± 1%.
NS(=O)(=O)c1ccc(Nc2ncnc3nc[nH]c23)cc1 showed an inhibition at 50 µM of 54 ± 4% and an IC50 of 42.7 ± 0.9 µM.
With Nc1nc(Nc2ccc(S(N)(=O)=O)cc2)c2[nH]cnc2n1 the inhibition at 50 µM was 9 ± 2%.
Compound Nc1nccc(Nc2ccc(S(=O)(=O)Nc3ccccc3)cc2)n1 has an inhibition at 50 µM of 46 ± 4% and an IC50 greater than 100 µM.
Cc1cc(Nc2cccc(S(N)(=O)=O)c2)nc(N)n1 gave an inhibition at 50 µM of 0.8 ± 1.2%.
Work on CC(=O)Nc1cccc(Nc2ccnc(N)n2)c1 yielded an inhibition at 50 µM of 42 ± 6%.
Work on CC(=O)N1CCc2ccc(Nc3ccnc(N)n3)cc21 yielded an inhibition at 50 µM of 10 ± 12%.
Nc1nccc(Nc2cc(S(N)(=O)=O)ccc2O)n1 showed an inhibition at 50 µM of 36 ± 5%.
COc1cc(NC(C)=O)ccc1Nc1ccnc(N)n1 showed an inhibition at 50 µM of 2 ± 1%.
Work on Nc1nccc(Nc2ccc(CC(=O)O)cc2)n1 yielded an inhibition at 50 µM of 2 ± 1%.
In the case of CS(=O)(=O)c1ccc(Nc2ccnc(N)n2)cc1, the inhibition at 50 µM is reported as 38 ± 1%.
Nc1nccc(Nc2ccc3[nH]ccc3c2)n1 was tested, and the inhibition at 50 µM was 37 ± 1%.
Nc1nccc(Nc2ccc3cc[nH]c3c2)n1 gave an inhibition at 50 µM of 23 ± 1%.
For CCc1ccc(Nc2ccnc(N)n2)cc1, the inhibition at 50 µM was 36 ± 6%.
CCOc1ccc(Nc2ccnc(N)n2)cc1 showed an inhibition at 50 µM of 31 ± 4%.
Compound Nc1nccc(Oc2ccccc2)n1 has an inhibition at 50 µM of -0.5 ± 1%.
For Nc1nccc(Oc2ccc(S(N)(=O)=O)cc2)n1, the inhibition at 50 µM was -0.3 ± 1%.
Compound NC(=O)c1ccc(Oc2ccnc(N)n2)cc1 has an inhibition at 50 µM of 2 ± 1%.
Clc1nccc(N2CCc3ccccc32)n1 showed an inhibition at 50 µM of -3 ± 1%.
c1ccc(Nc2nccc(N3CCc4ccccc43)n2)cc1 was tested, and the inhibition at 50 µM was -1 ± 2%.
Compound Nc1nccc(N2CCc3ccccc3C2)n1 has an inhibition at 50 µM of 6 ± 1%.
Nc1nccc(N2CCc3cc([N+](=O)[O-])ccc32)n1 gave an inhibition at 50 µM of 24 ± 2%.
Nc1nccc(N2c3ccccc3CC2c2ccccc2)n1 (stereo not drawn) showed an inhibition at 50 µM of 18 ± 1%.
Nc1nccc(N2c3ccccc3CC2C(=O)O)n1 (stereo not drawn) showed an inhibition at 50 µM of 6 ± 0.4%.
Work on Nc1nccc(-n2ccc3c(C(=O)Nc4ccccc4)cccc32)n1 yielded an inhibition at 50 µM of 9 ± 1%.
Nc1nccc(-n2ccc3cc(NC(=O)c4ccccc4)ccc32)n1 gave an inhibition at 50 µM of 8 ± 3%.
Work on Nc1nccc(-n2ccc3cc(C(=O)Nc4ccccc4)ccc32)n1 yielded an inhibition at 50 µM of 17 ± 2%.
Work on Nc1nccc(Nc2ccccc2OCc2ccccc2)n1 yielded an inhibition at 50 µM of 22 ± 4%.
Work on Nc1nccc(-n2ccc3c(OCc4cccc(Cl)c4F)cccc32)n1 yielded an inhibition at 50 µM of 10 ± 2%.
In the case of Nc1nccc(-n2ccc3cc(OCCc4ccccc4)ccc32)n1, the inhibition at 50 µM is reported as 21 ± 14%.
Nc1nccc(-n2ccc3ccc(OCc4ccccc4)cc32)n1 gave an inhibition at 50 µM of -5 ± 2%.
Work on Nc1nccc(-n2ccc3cccc(OCc4ccccc4)c32)n1 yielded an inhibition at 50 µM of -5 ± 0.5%.
Compound c1ccc(COc2cccc3c2CCN3c2ncnc3[nH]ccc23)cc1 has an inhibition at 50 µM of 33 ± 4%.
Nc1nccc(-n2ccc3c(C(=O)NCc4ccccc4Cl)cccc32)n1 showed an inhibition at 50 µM of 39.2 ± 4.19%.
Compound Nc1nccc(-n2ccc3c(C(=O)NCc4ccc(Cl)cc4)cccc32)n1 has an inhibition at 50 µM of 31 ± 10%.
COc1ccc(CNC(=O)c2cccc3c2ccn3-c2ccnc(N)n2)cc1 showed an inhibition at 50 µM of 19.4 ± 13.7%.
COc1cccc(CC(=O)Nc2cccc3c2ccn3-c2ccnc(N)n2)c1 gave an inhibition at 100 µM of 62% and an IC50 of 13 ± 6.81 µM.
In the case of CS(=O)(=O)Nc1cccc(CNC(=O)c2cccc3c2ccn3-c2ccnc(N)n2)c1, the inhibition at 100 µM is reported as 100% and the IC50 is reported as 3.26 ± 0.57 µM.
CC(=O)Nc1cccc(CNC(=O)c2cccc3c2ccn3-c2ccnc(N)n2)c1 showed an inhibition at 100 µM of 117% and an IC50 of 1.39 ± 0.26 µM.
Compound COc1cccc(CNC(=O)c2cccc3c2ccn3-c2cc(N)nc(N)n2)c1 has an inhibition at 50 µM of 1.26 ± 0.79%.
